Measurements published in the supplement of paper PMC4932681.

Columns and labels:
ZR-75-1 Tam2 [1] = test: relative IC50 (midpoint of fitted logistic curve, plateau may be below 50% inhibition; CellTiter-Glo viability); higher = less potent; settings: 4-OH-tamoxifen in medium 1 µM; 72 h
Protocol: (§1)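 FIMM FO2B library drugs were plated at 5 concentrations spanning a 10,000-fold range in 384-well plates. Cells were incubated for 72 h at 37 °C and viability was read by CellTiter-Glo, normalised to DMSO (0% inhibition) and 100 µM benzethonium chloride (100% inhibition). IC50 values come from logistic dose-response fits (Breeze pipeline). Tamoxifen-resistant lines and the 'in 1µM tamoxifen' parental arms were tested in medium with 1 µM 4-OH-tamoxifen.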

MCF-7 [2] = test: as above; settings: 72 h
Protocol: as §1

BT-474 Tam1 [3] = test: as above; settings: 4-OH-tamoxifen in medium 1 µM; 72 h
Protocol: as §1

BT-474 [4] = test: as above; settings: 72 h
Protocol: as §1

MCF-7 Tam1 [5] = test: as above; settings: 4-OH-tamoxifen in medium 1 µM; 72 h
Protocol: as §1

ZR-75-1 [6] = test: as above; settings: 72 h
Protocol: as §1

T-47D [7] = test: as above; settings: 72 h
Protocol: as §1

BT-474 Tam2 [8] = test: as above; settings: 4-OH-tamoxifen in medium 1 µM; 72 h
Protocol: as §1

T-47D Tam1 [9] = test: as above; settings: 4-OH-tamoxifen in medium 1 µM; 72 h
Protocol: as §1

ZR-75-1 Tam1 [10] = test: as above; settings: 4-OH-tamoxifen in medium 1 µM; 72 h
Protocol: as §1

ZR-75-1 Tam2 [11] = test: drug sensitivity score (DSS) (DSS (dimensionless)); higher = more sensitive; extreme values may be limits of the assay; settings: 4-OH-tamoxifen in medium 1 µM; 72 h
Protocol: (§2)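 FIMM FO2B library drugs were tested at 5 concentrations (10,000-fold range) for 72 h, with CellTiter-Glo viability normalised to DMSO and benzethonium chloride controls. The Drug Sensitivity Score (DSS) is computed from the fitted logistic dose-response curve (area-based; 0 = inactive). Resistant lines and the 'in 1µM tamoxifen' arms were tested in 1 µM 4-OH-tamoxifen.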

MCF-7 [12] = test: as above; settings: 72 h
Protocol: as §2

BT-474 Tam1 [13] = test: as above; settings: 4-OH-tamoxifen in medium 1 µM; 72 h
Protocol: as §2

BT-474 [14] = test: as above; settings: 72 h
Protocol: as §2

MCF-7 Tam1 [15] = test: as above; settings: 4-OH-tamoxifen in medium 1 µM; 72 h
Protocol: as §2

T-47D Tam2 = test: as above; settings: 4-OH-tamoxifen in medium 1 µM; 72 h
Protocol: as §2

ZR-75-1 [16] = test: as above; settings: 72 h
Protocol: as §2

T-47D [17] = test: as above; settings: 72 h
Protocol: as §2

BT-474 Tam2 [18] = test: as above; settings: 4-OH-tamoxifen in medium 1 µM; 72 h
Protocol: as §2

T-47D Tam1 [19] = test: as above; settings: 4-OH-tamoxifen in medium 1 µM; 72 h
Protocol: as §2

ZR-75-1 Tam1 [20] = test: as above; settings: 4-OH-tamoxifen in medium 1 µM; 72 h
Protocol: as §2

Row | Compound | relative IC50 (ZR-75-1 Tam2 [1]) [µM] | relative IC50 (MCF-7 [2]; 4-OH-tamoxifen in medium 0 µM) [µM] | relative IC50 (MCF-7 [2]; 4-OH-tamoxifen in medium 1 µM) [µM] | relative IC50 (BT-474 Tam1 [3]) [µM] | relative IC50 (BT-474 [4]; 4-OH-tamoxifen in medium 0 µM) [µM] | relative IC50 (BT-474 [4]; 4-OH-tamoxifen in medium 1 µM) [µM] | relative IC50 (MCF-7 Tam1 [5]) [µM] | relative IC50 (ZR-75-1 [6]; 4-OH-tamoxifen in medium 0 µM) [µM] | relative IC50 (ZR-75-1 [6]; 4-OH-tamoxifen in medium 1 µM) [µM] | relative IC50 (T-47D [7]; 4-OH-tamoxifen in medium 0 µM) [µM] | relative IC50 (T-47D [7]; 4-OH-tamoxifen in medium 1 µM) [µM] | relative IC50 (BT-474 Tam2 [8]) [µM] | relative IC50 (T-47D Tam1 [9]) [µM] | relative IC50 (ZR-75-1 Tam1 [10]) [µM] | drug sensitivity score (ZR-75-1 Tam2 [11]) | drug sensitivity score (MCF-7 [12]; 4-OH-tamoxifen in medium 0 µM) | drug sensitivity score (MCF-7 [12]; 4-OH-tamoxifen in medium 1 µM) | drug sensitivity score (BT-474 Tam1 [13]) | drug sensitivity score (BT-474 [14]; 4-OH-tamoxifen in medium 0 µM) | drug sensitivity score (BT-474 [14]; 4-OH-tamoxifen in medium 1 µM) | drug sensitivity score (MCF-7 Tam1 [15]) | drug sensitivity score (T-47D Tam2) | drug sensitivity score (ZR-75-1 [16]; 4-OH-tamoxifen in medium 0 µM) | drug sensitivity score (ZR-75-1 [16]; 4-OH-tamoxifen in medium 1 µM) | drug sensitivity score (T-47D [17]; 4-OH-tamoxifen in medium 0 µM) | drug sensitivity score (T-47D [17]; 4-OH-tamoxifen in medium 1 µM) | drug sensitivity score (BT-474 Tam2 [18]) | drug sensitivity score (T-47D Tam1 [19]) | drug sensitivity score (ZR-75-1 Tam1 [20])
1 | CCCCC/C=C/C=C1/C(=O)C=C[C@@H]1C/C=C\CCCC(=O)O [15D-PGJ2] | > 0.8 | > 0.8 | > 0.8 | > 0.8 | > 0.8 | > 0.8 | > 0.8 | > 0.8 | > 0.8 | > 0.8 | > 0.8 | > 0.8 | > 0.8 | > 0.8 | 0 | 0 | 0 | 0 | 0 | 0 | 0 | 0.598 | 0 | 0 | 0 | 0 | 0 | 0 | 0
2 | CC(O)(CS(=O)(=O)c1ccc(F)cc1)C(=O)Nc1ccc(C#N)c(C(F)(F)F)c1 (stereo not drawn) [Bicalutamide] | > 10 | > 10 | > 10 | > 10 | > 10 | > 10 | > 10 | > 10 | > 10 | > 10 |  | > 10 | > 10 | > 10 | 0 | 0 | 0 | 0 | 0 | 0 | 0 | 0.0904 | 0 | 0 | 0 | 0 | 0 | 0 | 0
3 | Cc1ccc(-c2cc(C(F)(F)F)nn2-c2ccc(S(N)(=O)=O)cc2)cc1 [Celecoxib] | > 10 |  | > 10 |  | > 10 | > 10 | > 10 | > 10 |  | > 10 | > 10 | > 10 | > 10 | > 10 | 0 | 0.0979 | 0 | 0.0337 | 0 | 0 | 0 | 0.335 | 0 | 0.0083 | 0 | 0 | 0 | 0 | 0
4 | O=P1(N(CCCl)CCCl)NCCCO1 (stereo not drawn) [Clafen (Cyclophosphamide, Endoxan)] | > 40 | > 40 |  | > 40 | > 40 | > 40 | > 40 | > 40 | > 40 | > 40 | > 40 | > 40 | > 40 | > 40 | 0 | 0 | 0.034 | 0 | 0 | 0 | 0 | 0.114 | 0 | 0 | 0 | 0 | 0 | 0 | 0
5 | C=C1C[C@@H]2[C@H](CC[C@]3(C)C(=O)CC[C@@H]23)[C@@]2(C)C=CC(=O)C=C12 [Exemestane] | > 10 |  |  | > 10 | > 10 | > 10 | > 10 | > 10 | > 10 | > 10 | > 10 | > 10 | > 10 | > 10 | 0 | 1.3 | 0 | 0 | 0 | 0 | 0 | 0.965 | 0 | 0 | 0 | 0 | 0 | 0 | 0
6 | O=S(=O)(c1cccc2cnccc12)N1CCCNCC1 [Fasudil  (HA-1077)] | > 50 |  | > 50 | > 50 | > 50 | > 50 | > 50 | > 50 | > 50 | > 50 | > 50 | > 50 | > 50 | > 50 | 0 | 0.328 | 0 | 6.87 | 1.03 | 5.24 | 0 | 1.06 | 0 | 0 | 0 | 0.739 | 6.54 | 1.67 | 0
7 | CC(C)C(=O)Nc1ccc([N+](=O)[O-])c(C(F)(F)F)c1 [Flutamide] | > 10 | > 10 |  | > 10 | > 10 | > 10 | > 10 | > 10 | > 10 | > 10 | > 10 | > 10 | > 10 | > 10 | 0 | 0 | 0.814 | 0 | 0 | 0 | 0 | 0.0387 | 0 | 0 | 0 | 0 | 0 | 0 | 0
8 | CC(C)C[C@H](NC(=O)[C@@H](COC(C)(C)C)NC(=O)[C@H](Cc1ccc(O)cc1)NC(=O)[C@H](CO)NC(=O)[C@H](Cc1c[nH]c2ccccc12)NC(=O)[C@H](Cc1cnc[nH]1)NC(=O)[C@@H]1CCC(=O)N1)C(=O)N[C@@H](CCCNC(=N)N)C(=O)N1CCC[C@H]1C(=O)NNC(N)=O [Goserelin acetate] | > 10 | > 10 | > 10 | > 10 | > 10 | > 10 | > 10 | > 10 | > 10 | > 10 | > 10 | > 10 | > 10 | > 10 | 0 | 0 | 0 | 0 | 0 | 0 | 0 | 0.105 | 0 | 0 | 0 | 0 | 0 | 0 | 0
9 | CCc1c2c(nc3ccc(OC(=O)N4CCC(N5CCCCC5)CC4)cc13)-c1cc3c(c(=O)n1C2)COC(=O)[C@]3(O)CC [Irinotecan] | 1.59 |  |  | > 10 | > 10 | > 10 | > 10 | 1.71 |  | 1.24 | > 10 | > 10 | 1.73 | 1.39 | 3.94 | 1.56 | 1.5 | 0 | 0 | 0 | 0 | 0.581 | 3.43 | 1.34 | 4.39 | 0 | 0 | 2.72 | 3.21
10 | CC1(C)CNc2cc(NC(=O)c3cccnc3NCc3ccncc3)ccc21 [Motesanib  (AMG-706)] | > 10 | > 10 | > 10 | > 10 | > 10 | > 10 | > 10 | > 10 | > 10 | > 10 | > 10 | > 10 | > 10 | > 10 | 0 | 0 | 0 | 0 | 0 | 0 | 0 | 0.166 | 0 | 0 | 0 | 0 | 0 | 0 | 0
11 | CC1(C)CCC(c2ccc(Cl)cc2)=C(CN2CCN(c3ccc(C(=O)NS(=O)(=O)c4ccc(N[C@H](CCN5CCOCC5)CSc5ccccc5)c(S(=O)(=O)C(F)(F)F)c4)cc3)CC2)C1 [Navitoclax (ABT-263)] | > 10 |  |  | 1.15 |  | 1.61 | > 10 | > 10 | > 10 | > 10 | > 10 | 0.723 | 0.326 | > 10 | 0 | 1.6 | 0.949 | 2.79 | 0 | 4.26 | 0 | 1.65 | 0 | 0 | 0 | 0 | 3.9 | 14.1 | 0
12 | O=C(c1cc(Cc2n[nH]c(=O)c3ccccc23)ccc1F)N1CCN(C(=O)C2CC2)CC1 [Olaparib] | > 10 | > 10 |  |  | > 10 | > 10 | > 10 | > 10 | > 10 |  | > 10 | > 10 | > 10 | > 10 | 0 | 0 | 0.285 | 0.0009 | 0 | 0 | 0 | 0.0505 | 0 | 0 | 0 | 0 | 0 | 0 | 0
13 | CN1CCN(CCOc2cc(OC3CCOCC3)c3c(Nc4c(Cl)ccc5c4OCO5)ncnc3c2)CC1 [Saracatinib] | > 10 |  |  | 1.17 | 2.15 | 1.29 | > 10 | > 10 | > 10 |  | > 10 | 1.35 | 0.504 | > 10 | 0 | 2.15 | 0.814 | 10.8 | 3.72 | 9.8 | 0 | 3.11 | 0 | 0 | 1.32 | 0 | 10.1 | 5.37 | 0
14 | CC[C@@]1(O)C(=O)OCc2c1cc1n(c2=O)Cc2cc3c(CN(C)C)c(O)ccc3nc2-1 [Topotecan] | 0.136 |  |  | > 1 | > 1 | > 1 | > 1 | 0.0952 | 0.13 | 0.0779 | > 1 | > 1 | 0.1 | 0.156 | 4.55 | 0.567 | 2.53 | 0 | 0 | 0 | 0 | 1.16 | 5.48 | 3.54 | 7.46 | 0 | 0 | 5.31 | 3.45
